Test results: patent publication US8946423B2, “Highly soluble salt of pyrroloquinoline quinone and method for producing the same” (Mitsubishi Gas Chemical Company, Inc., priority 2010, dated 2015)

Test: Dissolution test: salts dissolved up to saturation, solubility determined by absorbance at 450 nm
Details: for solubility of pyrroloquinoline, mmol/L / solubility of pyrroloquinoline: saturation at room temperature of 23 to 28° C.; for Relative Ratio (solubility): relative to Disodium Salt of PQQ in water = 1
Protocol: The disodium salt of PQQ obtained by the method as described in Example 1 was used.
These salts were dissolved up to saturation at room temperature of 23 to 28° C., and these solutions each were diluted by 20 times or 400 times with a phosphate buffer having a pH of 7.5. For the diluted solutions each, an analysis of the ultraviolet-visible absorption spectra was carried out using a HITACHI U-2000 spectrometer.

Compound | solubility of pyrroloquinoline, mmol/L (Solvent Ethanol) | solubility of pyrroloquinoline, mmol/L (Solvent Water) | Relative Ratio (solubility) (Solvent Ethanol) | solubility of pyrroloquinoline (Solvent Ethanol) | Relative Ratio (solubility) (Solvent Water) | solubility of pyrroloquinoline (Solvent Water) | solubility in ethanol (in words)
C[N+](C)(C)CCO.C[N+](C)(C)CCO.C[N+](C)(C)CCO.O=C(O)c1cc(C(=O)O)c2c(n1)C(=O)C(=O)c1cc(C(=O)O)[nH]c1-2 [Tricholine Salt of PQQ] | ≥ 171 or mmol/L | ≥ 171 or mmol/L |  |  |  |  | 
Dicholine Salt of PQQ |  |  | 13.9 | 111 mM | 11.8 | 94 mM | 
Monocholine Salt of PQQ |  |  | 0.06 | 0.52 mM | 0.24 | 1.94 mM | 
O=C([O-])c1cc(C(=O)[O-])c2c(n1)C(=O)C(=O)c1cc(C(=O)O)[nH]c1-2.[Na+].[Na+] [Disodium Salt of PQQ, reference compound] |  |  |  |  |  |  | almost insoluble
